The assay has as its system mice with hyperuricemia. Description: Serum creatinine of mice with hyperuricemia (Mindray BS480 biochemical analyzer). In kind it is in vivo, KunMing mice. The note with it: 5 mg/kg BW by intragastric administration. The procedure:
24 healthy male KunMing mice with the weight of 24 to 32 g were randomly divided into four groups after a week of acclimatization, namely a control group, a hyperuricemia model group, an L. reuteri CCFM1132 intervention group and an allopurinol intervention group (allopurinol). Except the control group, 500 mg/kg BW hypoxanthine was given to the other groups every day by intragastric administration, and 200 mg/kg BW oteracil potassium was intraperitoneally injected to the other groups 1 h later. At 1 h before processing with oteracil potassium, 100 g/L skim milk was given to the control group and the hyperuricemia model group, L. reuteri CCFM1132 with the concentration of 1.0×10^9 CFU/mouse was given to the L. reuteri CCFM1132 intervention group, and 5 mg/kg BW allopurinol was given to the allopurinol group.
At the end of the experiment, fresh feces of the mice was collected and frozen at −80° C. After the experiment was finished, the mice were subjected to fasting but free for drinking water for 12 h. 0.1 mL/10 g of […] pentobarbital sodium solution was intraperitoneally injected for anesthetization. […] The serum uric acid levels were determined by using a kit method.
Experimental animal groups and processing methods are the same as those of Example 3, and serum creatinine was detected by using a Mindray BS480 biochemical analyzer according to a kit method.

Here are results for 1 molecule from patent US12533384B2, “Lactobacillus reuteri CCFM1132 capable of relieving hyperuricemia and application thereof” (Jiangnan University, priority 2020, dated 2026).

Consider `Oc1ncnc2[nH]ncc12` [allopurinol], for which the “serum creatinine reducing effect” value was “does not have the reducing effect”.
